Data: ChEMBL document CHEMBL1201861, “Genomics of Drug Sensitity in Cancer screening data, Wellcome Trust Sanger Institute”

Columns and labels:
Assay in all cases: cells
COR-L88 = assay type: functional, cell-based; details: Homo sapiens;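 also: growth inhibition of COR-L88 cells, read out with a cell viability assay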
Description: SANGER: Inhibition of human COR-L88 cell growth in a cell viability assay.

CTB-1 = assay type: functional, cell-based; details: Homo sapiens
Description: SANGER: Inhibition of human CTB-1 cell growth in a cell viability assay.

CTV-1 = assay type: functional, cell-based; details: Homo sapiens;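 also: growth inhibition of the cell line, read out with a cell viability assay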
Description: SANGER: Inhibition of human CTV-1 cell growth in a cell viability assay.

CaR-1 = assay type: functional, cell-based, Homo sapiens; details: Homo sapiens, CaR-1;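 also: growth inhibition of human CaR-1 cancer cells, read out with a cell viability assay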
Description: SANGER: Inhibition of human CaR-1 cell growth in a cell viability assay.

ChaGo-K-1 = assay type: functional, cell-based; details: Homo sapiens;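 also: growth inhibition of ChaGo-K-1 cells, read out with a cell viability assay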
Description: SANGER: Inhibition of human ChaGo-K-1 cell growth in a cell viability assay.

EGI-1 = assay type: functional, cell-based, Homo sapiens; details: Homo sapiens, EGI-1;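 also: cell viability readout used to gauge growth inhibition of EGI-1 cells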
Description: SANGER: Inhibition of human EGI-1 cell growth in a cell viability assay.

G-401 = assay type: functional, cell-based, Homo sapiens; details: Homo sapiens, G-401
Description: SANGER: Inhibition of human G-401 cell growth in a cell viability assay.

HCC1806 = assay type: functional, cell-based, Homo sapiens; details: Homo sapiens, HCC1806;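 also: growth inhibition of the cancer cell line, determined with a cell viability assay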
Description: SANGER: Inhibition of human HCC1806 cell growth in a cell viability assay.

HCC 2998 = assay type: functional, cell-based, Homo sapiens; details: Homo sapiens, HCC 2998;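 also: growth inhibition of human HCC2998 cells, measured with a cell viability read-out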
Description: SANGER: Inhibition of human HCC2998 cell growth in a cell viability assay.

HT1197 = assay type: functional, cell-based, Homo sapiens, HT-1197; details: Homo sapiens, HT1197
Description: SANGER: Inhibition of human HT-1197 cell growth in a cell viability assay.

HT-1376 = assay type: functional, cell-based, Homo sapiens; details: Homo sapiens, HT-1376
Description: SANGER: Inhibition of human HT-1376 cell growth in a cell viability assay.

HuCCT-1 = assay type: functional, cell-based, Homo sapiens, HuCCT1; details: Homo sapiens, HuCCT-1;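 also: growth inhibition of HuCCT-1 cells, read out by a cell viability assay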
Description: SANGER: Inhibition of human HuCCT1 cell growth in a cell viability assay.

Huh-7 = assay type: functional, cell-based, Homo sapiens; details: Homo sapiens, Huh-7;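 also: HuH-7 cell growth inhibition, read out with a cell viability assay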
Description: SANGER: Inhibition of human HuH-7 cell growth in a cell viability assay.

KE-37 = assay type: functional, cell-based; details: Homo sapiens;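 also: growth inhibition of KE-37 cells, read out with a cell viability assay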
Description: SANGER: Inhibition of human KE-37 cell growth in a cell viability assay.

KGN = assay type: functional, cell-based, Homo sapiens; details: Homo sapiens, KGN;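 also: growth inhibition of KGN cells, read out with a cell viability assay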
KM12 = assay type: functional, cell-based, Homo sapiens; details: Homo sapiens, KM12;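 also: KM12 cell growth inhibition, read out with a cell viability assay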
Description: SANGER: Inhibition of human KM12 cell growth in a cell viability assay.

KNS-81-FD = assay type: functional, cell-based, Homo sapiens; details: Homo sapiens, KNS-81-FD;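 also: growth inhibition of KNS-81-FD cells, read out with a cell viability assay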
Description: SANGER: Inhibition of human KNS-81-FD cell growth in a cell viability assay.

KYSE-140 = assay type: functional, cell-based, Homo sapiens; details: Homo sapiens, KYSE-140;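 also: cell viability assay measuring growth inhibition in human KYSE-140 cells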
Description: SANGER: Inhibition of human KYSE-140 cell growth in a cell viability assay.

LCLC-103H cell line = assay type: functional, cell-based, Homo sapiens; details: Homo sapiens, LCLC-103H
Description: SANGER: Inhibition of human LCLC-103H cell growth in a cell viability assay.

LU-99A = assay type: functional, cell-based, Homo sapiens; details: Homo sapiens, LU-99A;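 also: growth inhibition of LU-99A cells, read out with a cell viability assay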
Description: SANGER: Inhibition of human LU-99A cell growth in a cell viability assay.

MC116 = assay type: functional, cell-based; details: Homo sapiens;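 also: growth inhibition of MC116 cells, read out with a cell viability assay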
Description: SANGER: Inhibition of human MC116 cell growth in a cell viability assay.

MDA-MB-415 = assay type: functional, cell-based; details: Homo sapiens
NB12 = assay type: functional, cell-based, Homo sapiens; details: Homo sapiens, NB12;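 also: growth inhibition of human NB12 cells, read out by a cell viability assay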
Description: SANGER: Inhibition of human NB12 cell growth in a cell viability assay.

NB69 = assay type: functional, cell-based, Homo sapiens; details: Homo sapiens, NB69;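 also: growth inhibition of NB69 cells, determined by a cell viability assay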
Description: SANGER: Inhibition of human NB69 cell growth in a cell viability assay.

NCI-H1563 = assay type: functional, cell-based, Homo sapiens; details: Homo sapiens, NCI-H1563;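 also: growth inhibition of human NCI-H1563 cells, read out with a cell viability assay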
Description: SANGER: Inhibition of human NCI-H1563 cell growth in a cell viability assay.

NCI-H1693 = assay type: functional, cell-based, Homo sapiens; details: Homo sapiens, NCI-H1693;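 also: growth inhibition of the human cell line, read out with a cell viability assay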
Description: SANGER: Inhibition of human NCI-H1693 cell growth in a cell viability assay.

NCI-H1755 = assay type: functional, cell-based, Homo sapiens; details: Homo sapiens, NCI-H1755;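 also: cell viability readout used to measure growth inhibition of NCI-H1755 cells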
Description: SANGER: Inhibition of human NCI-H1755 cell growth in a cell viability assay.

NCI-H1993 = assay type: functional, cell-based, Homo sapiens; details: Homo sapiens, NCI-H1993;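 also: growth inhibition of the cancer cell line, assessed with a cell viability assay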
Description: SANGER: Inhibition of human NCI-H1993 cell growth in a cell viability assay.

NCI-H23 = assay type: functional, cell-based, Homo sapiens; details: Homo sapiens, NCI-H23
Description: SANGER: Inhibition of human NCI-H23 cell growth in a cell viability assay.

NCI-H2342 = assay type: functional, cell-based; details: Homo sapiens;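 also: growth inhibition of the cancer cell line, determined with a cell viability assay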
Description: SANGER: Inhibition of human NCI-H2342 cell growth in a cell viability assay.

NCI-H650 = assay type: functional, cell-based, Homo sapiens; details: Homo sapiens, NCI-H650;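 also: growth inhibition of NCI-H650 cells, read out by a viability assay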
Description: SANGER: Inhibition of human NCI-H650 cell growth in a cell viability assay.

OAW-28 = assay type: functional, cell-based, Homo sapiens; details: Homo sapiens, OAW-28;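 also: growth inhibition of OAW-28 cells, read out with a cell viability assay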
Description: SANGER: Inhibition of human OAW-28 cell growth in a cell viability assay.

OAW-42 = assay type: functional, cell-based, Homo sapiens; details: Homo sapiens, OAW-42;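 also: growth inhibition of OAW-42 cells, read out with a cell viability assay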
Description: SANGER: Inhibition of human OAW-42 cell growth in a cell viability assay.

PSN1 = assay type: functional, cell-based, Homo sapiens; details: Homo sapiens, PSN1;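 also: suppression of growth of human PSN1 cells, read out by a cell viability assay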
Description: SANGER: Inhibition of human PSN1 cell growth in a cell viability assay.

SBC-5 = assay type: functional, cell-based, Homo sapiens; details: Homo sapiens, SBC-5;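 also: cell viability assay read-out, IC50 is the concentration that inhibits growth of the cells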
Description: SANGER: Inhibition of human SBC-5 cell growth in a cell viability assay.

SCC-15 = assay type: functional, cell-based, Homo sapiens; details: Homo sapiens, SCC-15;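 also: growth inhibition of SCC-15 cells, read out with a cell viability assay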
Description: SANGER: Inhibition of human SCC-15 cell growth in a cell viability assay.

SHP77 = assay type: functional, cell-based, Homo sapiens, SHP-77; details: Homo sapiens, SHP77;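 also: growth inhibition of human SHP-77 cells measured by a cell viability assay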
Description: SANGER: Inhibition of human SHP-77 cell growth in a cell viability assay.

SJSA-1 = assay type: functional, cell-based, Homo sapiens; details: Homo sapiens, SJSA-1;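 also: growth inhibition of human SJSA-1 cells, read out through a cell viability measurement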
Description: SANGER: Inhibition of human SJSA-1 cell growth in a cell viability assay.

8505C = assay type: functional, cell-based, Homo sapiens; details: Homo sapiens, 8505C
Description: SANGER: Inhibition of human 8505C cell growth in a cell viability assay.

A101D = assay type: functional, cell-based, Homo sapiens; details: Homo sapiens, A101D;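 also: growth inhibition of the cell line, measured with a viability assay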
Description: SANGER: Inhibition of human A101D cell growth in a cell viability assay.

A 172 = assay type: functional, cell-based, Homo sapiens; details: Homo sapiens, A 172;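 also: growth inhibition of A172 cells, measured with a cell viability readout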
A498 = assay type: functional, cell-based, Homo sapiens; details: Homo sapiens, A498;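 also: growth inhibition of human A498 cells, read out with a cell viability assay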
Description: SANGER: Inhibition of human A498 cell growth in a cell viability assay.

A673 = assay type: functional, cell-based, Homo sapiens; details: Homo sapiens, A673;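 also: growth inhibition of human A673 cells, read out through a cell viability assay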
Description: SANGER: Inhibition of human A673 cell growth in a cell viability assay.

ABC-1 = assay type: functional, cell-based, Homo sapiens; details: Homo sapiens, ABC-1;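 also: growth inhibition of human ABC-1 cells, read out by a cell viability assay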
Description: SANGER: Inhibition of human ABC-1 cell growth in a cell viability assay.

BV-173 = assay type: functional, cell-based; details: Homo sapiens
Description: SANGER: Inhibition of human BV-173 cell growth in a cell viability assay.

C8166 = assay type: functional, cell-based; details: Homo sapiens;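 also: growth inhibition of human C8166 cells measured by a cell viability assay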
Description: SANGER: Inhibition of human C8166 cell growth in a cell viability assay.

CAL-33 = assay type: functional, cell-based, Homo sapiens; details: Homo sapiens, CAL-33;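 also: growth inhibition of CAL-33 cells, read out with a cell viability assay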
Description: SANGER: Inhibition of human CAL-33 cell growth in a cell viability assay.

CAL-72 = assay type: functional, cell-based, Homo sapiens; details: Homo sapiens, CAL-72;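 also: cell viability assay measuring inhibition of proliferation in the CAL-72 cell line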
Description: SANGER: Inhibition of human CAL-72 cell growth in a cell viability assay.

WM-115 = assay type: functional, cell-based, Homo sapiens; details: Homo sapiens, WM-115
Description: SANGER: Inhibition of human WM-115 cell growth in a cell viability assay.

COLO-668 = assay type: functional, cell-based, Homo sapiens; details: Homo sapiens, COLO-668
Description: SANGER: Inhibition of human COLO-668 cell growth in a cell viability assay.

Measured: IC50

Cc1ccc(Nc2nccc(N(C)c3ccc4c(C)n(C)nc4c3)n2)cc1S(N)(=O)=O [PAZOPANIB]
5940 nM: CAL-72
3130 nM: NCI-H2342
6210 nM: CTV-1
4070 nM: KGN
5760 nM: WM-115
> 8000 nM: COR-L88 | CTB-1 | CaR-1 | ChaGo-K-1 | EGI-1 | HCC1806 | HCC 2998 | HT1197 | HT-1376 | HuCCT-1 | KE-37 | KM12 | KNS-81-FD | KYSE-140 | LU-99A | MC116 | MDA-MB-415 | NB12 | NB69 | NCI-H1563 | NCI-H1693 | NCI-H1755 | NCI-H1993 | NCI-H23 | NCI-H650 | OAW-28 | OAW-42 | PSN1 | SBC-5 | SCC-15 | SHP77 | SJSA-1 | 8505C | A101D | A498 | A673 | ABC-1 | BV-173 | C8166 | CAL-33 | COLO-668
3740 nM: A 172
1460 nM: G-401
1450 nM: LCLC-103H cell line
7690 nM: Huh-7

CN(c1ncccc1CNc1nc(Nc2ccc3c(c2)CC(=O)N3)ncc1C(F)(F)F)S(C)(=O)=O [PF-00562271]
1130 nM: CAL-33
386 nM: KM12
2250 nM: ABC-1
832 nM: NCI-H650
1560 nM: LCLC-103H cell line
> 2560 nM: COR-L88 | CTB-1 | CTV-1 | CaR-1 | ChaGo-K-1 | EGI-1 | G-401 | HCC1806 | HCC 2998 | HT1197 | HT-1376 | HuCCT-1 | Huh-7 | KE-37 | KGN | KNS-81-FD | KYSE-140 | LU-99A | MC116 | MDA-MB-415 | NB12 | NB69 | NCI-H1563 | NCI-H1693 | NCI-H1755 | NCI-H1993 | NCI-H23 | NCI-H2342 | OAW-28 | OAW-42 | PSN1 | SBC-5 | SCC-15 | SHP77 | SJSA-1 | 8505C | A101D | A 172 | A498 | A673 | BV-173 | C8166 | CAL-72 | WM-115 | COLO-668
